The record followed here is paper PMC10454396 (International Journal of Molecular Sciences, 2023).

Values after ≈ are worked out from the molar mass of the structure shown.

The term MIC denotes the smallest concentration in the dilution series that meets the test's criterion for growth inhibition.

Data set [1] deals with Staphylococcus aureus Newman WT. The data set can be described thus: MIC, broth microdilution, S. aureus Newman wild type. The class given is cell-based. Particulars: Staphylococcus aureus; S. aureus Newman WT, MHB2 broth microdilution; read-out: MIC. On the procedure: Cefazolin was obtained from Acros Organics. Ciprofloxacin hydrochloride, linezolid and vancomycin hydrochloride were obtained from Sigma-Aldrich (St. Louis, MO, USA). Tetracycline hydrochloride was obtained from Alfa Aesar. Sorangicin A was provided by HZI, Braunschweig. Stock solutions were prepared in Milli-Q water or dimethyl sulfoxide (DMSO, Sigma-Aldrich). Minimum inhibitory concentrations (MICs) were determined in cation-adjusted Mueller-Hinton broth (MHB2) using the broth microdilution method as recommended by the Clinical and Laboratory Standards Institute (CLSI). The MIC was defined as the lowest concentration of the antibiotic causing complete inhibition of visible growth of the microorganism (CLSI, 2017).
1. In vitro characterization of mCherry expressing Staphylococcus aureus Newman
1.1 Minimum inhibitory concentration
Table S1. Antibiotic susceptibility profile of Staphylococcus aureus Newman. WT: wild type. […]
For orientation: Dilution methods test growth across graded concentrations, often in twofold steps.

The test system of data set [2] is mCherry-expressing S. aureus Newman. The data set can be described thus: Zebrafish embryo model of S. aureus yolk infection, antibiotic treatment efficacy. The class given is in vivo, Staphylococcus aureus. As for the experimental part:
With the aim to study the in vivo efficacy of drugs, 30 hpf zebrafish embryos were infected with 50 CFU of mCherry-expressing S. aureus Newman. Embryos were then left to recover from injection for two hours and subsequently treated with various reference antibiotics. Antibiotic treatment was performed via bath water immersion as well as via microinjection into the yolk (local treatment) and the caudal vein (systemic treatment) to study whether differences in in vivo activity exist between the three administration routes. Survival was assessed daily until 120 hpf. Additionally, the infection was visualized and quantified by means of fluorescence microscopy at 24 h post treatment (hpt). At the end of every experiment, living embryos (and dead embryos, if possible) were homogenized to determine the remaining bacterial count. Five approved antibiotics from different classes were assessed in vivo. The chosen drugs ought to differ in physicochemical properties, such as molecular weight and polarity, in order to detect a pattern between successful administration routes and the physicochemical properties of the drug. Prior to efficacy assessment, drug-mediated toxicity in zebrafish embryos was investigated using the same administration routes (Figure S3). For microinjection, a fixed dose of 20 to 30 mg/kg was used for each antibiotic. The concentration for bath water immersion was based on the minimum inhibitory concentration (MIC) and the maximum tolerated concentration (MTC) of the drug, whereby it is generally recommended to use 50- to 100-fold the antibacterial MIC to see a positive effect.
Pulled glass capillaries for microinjection (Table S2) were prepared using a micropipette puller (P-1000, Sutter Instrument). Dechorionated and anaesthetized embryos were infected with 50 colony-forming units (CFU) of mCherry-expressing S. aureus Newman by microinjection into the yolk sac at 30 hpf. In order to confirm bacterial numbers, an equal volume of bacterial cells was ejected onto Tryptic Soy Agar (TSA) supplemented with 10 µg/mL chloramphenicol before and after the injection. Antibiotic treatment was performed two hours post infection (hpi) via three different administration routes, namely bath water immersion and microinjection into the yolk sac as well as the caudal vein (CV). The infection procedure and treatment of infected embryos are described in details in the supplementary materials (Table S3).
Embryos were transferred individually to microcentrifuge tubes and washed at least three times with sterile PBS. 200 µL of sterile PBS were added and embryos were mechanically homogenized using a micropestle (Carl Roth, Karlsruhe, Germany). 800 µL of sterile PBS were added to reach a final volume of 1 mL. The homogenates were diluted and plated on tryptic soy agar (TSA). CFU counts were determined after 24 h of incubation at 37 °C.
Embryos were placed in a black 96-well plate (Falcon; Thermo Fisher, Dreieich, Germany) and cryo-anaesthetized by submersion into ice water. Images for quantitative fluorescence analysis were acquired using the following equipment: a fluorescence stereo microscope (M205 FA, Leica Microsystems, Wetzlar, Germany) in combination with a fluorescence illuminator (X-Cite, 200DC, Excelitas Technologies, Waltham, MA, USA) and a microscope camera (DFC7000 T, Leica Microsystems). Quantification of fluorescence was performed using Fiji ImageJ version 2.1.0. Fluorescent Integrated Density (FID) was determined by counting the number of pixels with fluorescence intensity greater than the threshold (10) and multiplying the count with its mean intensity. For confocal imaging, embryos were anaesthetized through immersion in tricaine (945 µM, Sigma-Aldrich) and immobilized in 1.2% low-melting agarose in a flat-bottom 96-well plate. Confocal images and time-lapse series were acquired using the Celldiscoverer 7 with LSM 900 (Zeiss) together with the 5×/0.35 Plan-APOCHROMAT objective.
2. […]

For the next data set, the system named is zebrafish embryos. The data set can be described thus: Toxicity of antimicrobials on zebrafish embryos. The note with it: bath water immersion 50x MIC, no bacteria recovered from dead embryos. The class given is in vivo, Danio rerio. On the procedure: Toxicity of antibiotics was assessed by aquatic exposure and microinjection. For evaluation of the maximum tolerated concentration (MTC) by aquatic exposure, embryos were dechorionated at 30 hpf and placed in a flat-bottom 96-well plate (Sarstedt) with one embryo per well. Excess medium was removed and 150 µL of compound dilutions (in 0.3× Danieau’s, maximum of 1% DMSO) were added. For each antibiotic, a range of concentrations was investigated. Ten embryos were used per concentration and ten additional embryos incubated in fish medium without any antibiotic served as negative control. Microinjection of antibiotics into the caudal vein (CV) and the yolk sac was performed as described earlier. PBS-injected embryos served as negative control. Exposed embryos were maintained at 28 °C throughout the whole experiment. Embryos were monitored daily under a stereo microscope (Stemi 508, Zeiss) in order to record survival as well as anomalies, pigmentation, heartbeat and locomotor responses. An embryo was considered dead when no heart beat could be observed.

For `CC(=O)NC[C@H]1CN(c2ccc(N3CCOCC3)c(F)c2)C(=O)O1` [linezolid], the MIC in data set [1] was 2 µg/mL (≈ 5.93 µM). For the same compound, the “bacterial fluorescence (FID) at 24 hpt” value in data set [2] (bath water immersion), in data set [2] (caudal vein microinjection) and in data set [2] (yolk microinjection) was “No fluorescence was recorded” in each case. The “effect on survival of infected embryos” value in data set [2] (bath water immersion 50-100x MIC) is “significantly (p < 0.0001) prolonged the survival”; in data set [2] (caudal vein microinjection 20-30 mg/kg, 2 hpi), “significantly (p < 0.0001) prolonged the survival”; in data set [2] (yolk microinjection 20-30 mg/kg, 2 hpi) it was “significantly (p < 0.0001) prolonged the survival”. For the same compound, the “recovery from infection (fluorescence microscopy and CFU plating)” value in data set [2] (bath water immersion 50x MIC) is “full recovery from infection”. Also, in data set [2] (bath water immersion, treatment 2 hpi, 50 CFU yolk infection, until 120 hpf), the survival is reported as 90%. Further, the mortality rate entry in data set [2] (yolk and caudal vein injection 2 hpi, 50 CFU yolk infection) was “greater than 75%”. The bacterial numbers result in data set [2] (yolk and caudal vein injection, embryos with lethal infection) is on record as “exceeding 10^5 CFU/embryo”. Besides, the “cause of death of embryos in immersion group” value in the data set on zebrafish embryos is “potential toxic effect”.
